From patent publication EP0877740B1, “THIOL DERIVATIVES WITH METALLOPEPTIDASE INHIBITORY ACTIVITY” (ZAMBON GROUP S.p.A., priority 1995, dated 1997)
Read-outs that look alike come from different tables or passages of the source.

Assays:
[1] = molecular target: T1, NEP (Rattus norvegicus, UniProt P07861); assay: Ex vivo NEP-inhibitory activity in kidney homogenates of treated SHR (GAAP substrate); parameters: After the removal of the kidneys from SHR, the renal tissue was homogenized; from tissue; host or cells: kidney homogenate of spontaneously hypertensive rats (SHR); species or system spontaneously hypertensive rats (SHR); settings: oral 30 µmoles/kg; for inhibition at 30 µmol/kg: rat, SHR kidneys
T1 sequence (P07861 1-750): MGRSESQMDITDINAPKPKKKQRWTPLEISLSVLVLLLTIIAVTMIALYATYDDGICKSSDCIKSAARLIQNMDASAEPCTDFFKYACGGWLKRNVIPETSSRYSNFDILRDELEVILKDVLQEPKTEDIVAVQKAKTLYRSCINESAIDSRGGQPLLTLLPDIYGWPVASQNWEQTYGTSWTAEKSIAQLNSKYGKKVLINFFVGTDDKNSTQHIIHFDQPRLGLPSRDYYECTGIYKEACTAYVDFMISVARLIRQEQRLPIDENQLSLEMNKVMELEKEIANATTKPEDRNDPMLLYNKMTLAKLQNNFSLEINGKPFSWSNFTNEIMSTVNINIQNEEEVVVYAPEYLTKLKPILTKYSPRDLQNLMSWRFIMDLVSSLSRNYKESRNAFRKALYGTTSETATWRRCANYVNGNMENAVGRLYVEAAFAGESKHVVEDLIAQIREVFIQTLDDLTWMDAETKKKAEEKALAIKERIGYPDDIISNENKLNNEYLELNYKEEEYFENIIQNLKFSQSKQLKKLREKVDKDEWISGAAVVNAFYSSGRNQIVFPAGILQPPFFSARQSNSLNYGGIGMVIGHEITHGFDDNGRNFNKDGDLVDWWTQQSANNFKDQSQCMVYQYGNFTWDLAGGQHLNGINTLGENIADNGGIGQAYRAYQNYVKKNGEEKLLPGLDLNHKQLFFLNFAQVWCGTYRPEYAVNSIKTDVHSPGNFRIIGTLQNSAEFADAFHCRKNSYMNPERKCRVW
Description: (§1) The ex-vivo ACE/NEP-inhibitory activity, in particular, was determined by evaluating the enzymatic activity in tissue homogenates (lung and kidney for ACE and NEP activity, respectively) from spontaneously hypertensive rats (SHR) treated with the tested compounds by intravenous or oral route.
The ex vivo NEP-inhibitory activity was evaluated according to the procedure reported in the literature by M. Orlowsky et al., in Biochemistry 1981, 20, 4942-4950.
The inhibitory activity of the compounds of formula I was evaluated in kidneys of spontaneously hypertensive rats (SHR), 5 minutes after i.v. injection (0.6 and 21 µmoles/kg) and 30 minutes, 60 minutes and 4 hours after oral administration (30 µmoles/kg) of the tested compounds.
After the removal of the kidneys from SHR, the renal tissue was homogenized and incubated for 15 minutes at 37°C in the presence of Glutaryl-Ala-Ala-Phe-2-naphthylamide (GAAP), as a substrate, and aminopeptidase M at pH 7.6.
The reaction was stopped by adding an aqueous solution at 10% of trichloroacetic acid.
The released 2-naphthylamine was determined by adding fast garnet dye (2 ml).
Enzyme reaction rates were determined by measuring the increase in the optical density at 524 nm (OD524) with respect to a standard obtained with 2-naphthylamine complexed with fast garnet.
The NEP-inhibitory activity of the tested compounds was expressed as percentage of NEP-inhibition in SHR kidneys.

[2] = molecular target: T2, ACE (Rattus norvegicus, UniProt P47820); assay: Ex vivo ACE-inhibitory activity in lung homogenates of treated SHR (radiometric, [3H]Hyp-Gly-Gly); parameters: species or system spontaneously hypertensive rats (SHR); settings: SHR lungs, oral 30 µmoles/kg
T2 construct: After the removal of the lungs from SHR, the lung tissue was homogenized; from tissue; host or cells: lung homogenate of spontaneously hypertensive rats (SHR)
T2 sequence (P47820 36-1313): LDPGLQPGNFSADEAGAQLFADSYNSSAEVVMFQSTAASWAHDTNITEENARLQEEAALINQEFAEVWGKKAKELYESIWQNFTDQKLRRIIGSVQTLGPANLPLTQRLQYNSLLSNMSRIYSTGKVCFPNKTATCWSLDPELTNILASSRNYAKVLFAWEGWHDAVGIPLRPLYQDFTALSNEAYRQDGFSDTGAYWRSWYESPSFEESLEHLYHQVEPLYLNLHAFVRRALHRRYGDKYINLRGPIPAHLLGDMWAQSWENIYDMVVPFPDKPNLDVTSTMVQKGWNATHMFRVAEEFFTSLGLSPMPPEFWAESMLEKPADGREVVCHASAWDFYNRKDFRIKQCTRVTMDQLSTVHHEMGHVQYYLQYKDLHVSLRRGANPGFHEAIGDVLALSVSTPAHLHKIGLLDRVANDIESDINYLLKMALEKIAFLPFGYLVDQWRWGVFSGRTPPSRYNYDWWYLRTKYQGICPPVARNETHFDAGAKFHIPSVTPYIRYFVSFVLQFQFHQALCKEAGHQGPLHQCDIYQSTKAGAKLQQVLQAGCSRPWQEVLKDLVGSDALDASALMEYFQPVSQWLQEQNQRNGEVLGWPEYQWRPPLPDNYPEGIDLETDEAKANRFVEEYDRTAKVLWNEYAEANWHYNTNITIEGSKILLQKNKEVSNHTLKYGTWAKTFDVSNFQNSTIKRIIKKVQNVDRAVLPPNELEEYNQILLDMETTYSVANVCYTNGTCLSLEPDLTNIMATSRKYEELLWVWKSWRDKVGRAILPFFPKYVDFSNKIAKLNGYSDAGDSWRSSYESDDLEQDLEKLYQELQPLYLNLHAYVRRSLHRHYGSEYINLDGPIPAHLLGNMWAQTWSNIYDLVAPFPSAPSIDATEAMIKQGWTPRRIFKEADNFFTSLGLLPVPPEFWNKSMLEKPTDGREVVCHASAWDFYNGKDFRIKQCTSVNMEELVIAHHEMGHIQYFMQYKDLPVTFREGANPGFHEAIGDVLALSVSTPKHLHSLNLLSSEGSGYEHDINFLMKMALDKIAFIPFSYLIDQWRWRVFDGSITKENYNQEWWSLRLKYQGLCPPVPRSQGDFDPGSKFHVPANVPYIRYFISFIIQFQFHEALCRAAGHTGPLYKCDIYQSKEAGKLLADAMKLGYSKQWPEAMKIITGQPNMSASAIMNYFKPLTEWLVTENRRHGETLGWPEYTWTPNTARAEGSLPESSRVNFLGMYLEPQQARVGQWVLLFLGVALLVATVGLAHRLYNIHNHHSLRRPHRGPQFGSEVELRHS
Description: as §1
The ex vivo ACE-inhibitory activity was evaluated by using a radiometric assay method, as reported in the literature by J. W. Ryan et al. in Biochem. J. (1977), 167, 501-504.
The inhibitory activity of the compounds of formula I was evaluated in lungs of spontaneously hypertensive rats (SHR), 5 minutes after i.v. injection (0.6 and 21 µmoles/kg) and 30 minutes, 60 minutes and 4 hours after oral administration (30 µmoles/kg) of the tested compounds.
After the removal of the lungs from SHR, the lung tissue was homogenized and incubated for 2 hours at 37°C in the presence of [^3H]Hyp-Gly-Gly, as a substrate.
The reaction was stopped by adding hydrochloric acid.
The released radiolabelled hyppuric acid was extracted with ethyl acetate and counted by liquid scintillation spectrometry, according to conventional methods.
The ACE-inhibitory activity of the tested compounds was expressed as percentage of ACE-inhibition in SHR lungs.

[3] = 30 minutes after administration, read-out: NEP-inhibition (kidneys) 30 minutes
[4] = 30 minutes after administration, read-out: ACE-inhibition (lungs) 30 minutes
[5] = 4 hours after administration, read-out: ACE-inhibition (lungs) 4 hours

| SMILES | NEP-inhibition (kidneys) 4 hours ([1]; 4 hours after administration) | inhibition at 30 µmol/kg [1, 3] [%] | inhibition at 30 µmol/kg [2, 4] [%] | inhibition at 30 µmol/kg [2, 5] [%] | inhibition at 30 µmol/kg ([1]; 4 hours after administration, read-out: NEP-inhibition (kidneys) 4 hours) [%] | NEP-inhibition (kidneys) 30 minutes ([1]; 30 minutes after administration) |
| --- | --- | --- | --- | --- | --- | --- |
| O=C(N[C@@H](Cc1ccc(O)cc1)C(=O)O)C(CS)Cc1ccc2c(c1)OCO2 (stereo partly drawn) [Compound R-2, N-[3-mercapto-2-(3,4-methylenedioxyphenyl)methyl-propionyl)-(S)-tyrosine] | not active | 30 | 30 | 25 | – | – |
| CC(CS)C(=O)N[C@@H](Cc1ccc(O)cc1)C(=O)O (stereo partly drawn) [Compound R-3, N-(3-mercapto-2-methylpropanoyl)-L-tyrosine] | – | 10 | 25 | 20 | 5 | – |
| O=C(N[C@@H](Cc1ccccc1)C(=O)O)C(CS)Cc1ccc2c(c1)OCO2 (stereo partly drawn) [Compound R-1, N-[3-mercapto-2-(3,4-methylenedioxyphenyl)methyl-propionyl]-(S)-phenylalanine] | not active | 5 | 25 | 20 | – | – |
| CC(CS)C(=O)N[C@@H](Cc1c[nH]c2ccccc12)C(=O)O (stereo partly drawn) [Compound R-4, N-(3-mercapto-2-methylpropanoyl)-L-triptophan] | not active | – | 25 | 10 | – | not active |
